What was measured:
[1] = Cardiovascular and respiratory function in anesthetized dogs; type: in vivo; conditions: anesthetized Beagle dogs; 400, 800 and 1,200 mg/kg/day via jugular vein infusion; compared to the vehicle control group
Description: The effects of 3-(3,4-dimethoxy-phenyl)-3-(1-oxo-1,3-dihydro-isoindol-2-yl)-propionamide on cardiovascular and respiratory function are investigated in anesthetized dogs. Two groups of Beagle dogs (2/sex/group) are used. One group receives three doses of vehicle only and the other receives three ascending doses of 3-(3,4-dimethoxy-phenyl)-3-(1-oxo-1,3-dihydro-isoindol-2-yl)-propionamide (400, 800, and 1,200 mg/kg/day). In all cases, doses of 3-(3,4-dimethoxy-phenyl)-3-(1-oxo-1,3-dihydro-isoindol-2-yl)-propionamide or vehicle are successively administered via infusion through the jugular vein separated by intervals of at least 30 minutes.

CBP^+/− mutant mice = conditions: cited from earlier work
[2] = system: C57BL/6 mice injected with MPTP; conditions: cited from earlier work
[3] = system: rat mesencephalonic neurons; conditions: in the presence of the adenylate cyclase activator forskolin; cited from earlier work
patients with PD = conditions: cited from earlier work

Compound | long-term memory defects (CBP^+/− mutant mice) | dopamine depletion in the striatum [2] | loss of tyrosine hydroxylase-immunopositive neurons in the substantia nigra [2] | uptake of dopamine [3] | other results
COc1ccc(C(CC(N)=O)N2Cc3ccccc3C2=O)cc1OC (centres unmarked) [3-(3,4-Dimethoxy-phenyl)-3-(1-oxo-1,3-dihydro-isoindol-2-yl)-propionamide] |  |  |  |  | cardiovascular and respiratory changes [1]: minimal at all doses
COc1ccc([C@H]2CNC(=O)[C@H](Cc3cccc(C)c3)C2)cc1OC1CCCC1 [HT0712] | abolished the long-term memory defects |  |  |  | 
CCCCOc1cc(CC2CNC(=O)N2)ccc1OC (centres unmarked) [Ro-20 1724] |  | reduce dopamine depletion in the striatum | reduce loss of tyrosine hydroxylase-immunopositive neurons | stimulate uptake of dopamine | 
COc1ccc(C2CNC(=O)C2)cc1OC1CCCC1 (centres unmarked) [Rolipram] | abolished the long-term memory defects |  |  |  | deterioration of the therapeutic action of dopamine against Lisuride (patients with PD; 3 mg per day, patients with PD already under treatment): no significant deterioration; dose-limiting side effect (patients with PD; Phase II trials of PD): nausea
COCCOc1cc(OCCOC)cc(-c2nc(C)cc3cc(OC)c(OC)cc23)c1 [SDZ-MNS 949] |  | reduce dopamine depletion in the striatum | reduce loss of tyrosine hydroxylase-immunopositive neurons | stimulate uptake of dopamine | 

— patent US20070190070A1, “Methods of using and compositions comprising selective cytokine inhibitory drugs for the treatment and management of disorders of the central nervous system” (priority 2004, published 2007)
